# Laboratory results reported in PMC6100724, “Proteome‐wide analysis of phospho‐regulated PDZ domain interactions” (Molecular Systems Biology, 2018).
# Square brackets hold non-standard residues; d marks the D form. Peptide text beside a SMILES is read from it. * marks the point of attachment. FITC = O=C1OC2(c3ccc(O)cc3Oc3cc(O)ccc32)c2ccc(NC(=S)*)cc21; pS = N[C@@H](COP(=O)(O)O)C(=O)O
# How the values were obtained:
# DLG1 PDZ2 [1] = target: T1, DLG1 PDZ2 (Homo sapiens, UniProt Q12959); assay: MST affinity measurement, FITC-labeled peptides vs DLG1 PDZ2; format: binding; details: FITC-labeled peptide fixed at 25–50 nM, titrated with DLG1 PDZ2 (aa 311–407), 50 mM Tris–HCl pH 7.4, 0.1% Tween‐20, thermophoresis and T Jump signal, mean ± SD, n = 3, read-out: KD values, DLG1 PDZ2 (table row head: DLG PDZ1), MST
# T1 construct: human DLG1 PDZ2 aa 311–407 in a modified pRSET vector 40; made in house; host or cells: E. coli BL21 Gold (DE3)
# From the text: (§1) Glutathione transferase (GST)‐tagged PDZ domains and GST for phage display selections were expressed and purified as described previously (Tonikian et al, 2008; Ivarsson et al, 2014). Protein expression for MST, ITC, and NMR experiments was as follows: Plasmids encoding His‐tagged proteins (human Scribble PDZ1 aa 719–829 in pETM‐11, human DLG1 PDZ2 aa 311–407 in a modified pRSET vector 40, or human Shank1 PDZ aa 652–761 in pETM‐33) were transformed into E. coli BL21 Gold (DE3; Agilent), and the proteins were expressed in 2YT media supplemented with appropriate antibiotic (70 or 100 μg/ml carbenicillin). Protein expression was induced upon reaching an OD600 of 0.8 by adding 1 mM isopropyl β‐D‐1‐thiogalactopyranoside (IPTG) final concentration and allowed for 4 h at 30°C.
# (§2) Scribble PDZ1 for NMR experiments was expressed in M9 salt enriched with 13C D‐glucose and 15N ammonium chloride. Bacteria were harvested by centrifugation at 10,000 × g for 20 min at 4°C. The pellets were resuspended in PBS supplemented with 5 mM CaCl2, 10 μg/ml DNaseI, and 1 mg/ml lysozyme and protease inhibitor (cOmplete Mini EDTA‐free; Sigma‐Aldrich) and incubated for 1 h at 4°C. The lysates were subjected to sonication in 1‐ to 3‐s pulses for 20 pulses. The lysate was cleared by centrifugation at 20,000 × g for 1 h. […]
# Scribble PDZ1 [2] = target: T2, Scribble PDZ1 (Homo sapiens, UniProt Q14160); assay: ITC titration, wild-type Scribble PDZ1; format: binding; details: unlabeled 9-mer peptides, 20 mM HEPES pH 7.4, 25°C, 50–100 μM protein in cell, 0.64–3 mM peptide in syringe, single-site fit, mean ± SD
# T2 construct: human Scribble PDZ1 aa 719–829 in; made in house; host or cells: E. coli BL21 Gold (DE3)
# From the text: as §1
# as §2, with “pulses.” for “pulses. The lysate was cleared by centrifugation at 20,000 × g for 1 h.”
# Peptides and proteins were dialyzed in the same beaker in 20 mM HEPES, pH 7.4. […] The results were analyzed using Origin 7 (OriginLab Corporation). […]
# DLG1 PDZ3 = assay: Phosphomimetic ProP-PD selection with NGS; format: binding, human; details: mean of selections 1-3; bait DLG1 PDZ3
# Procedure, shortened: (§3)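 Phage display of a phosphomimetic C-terminal peptide library, four rounds against immobilised GST-tagged PDZ domains with GST pre-selection, binding 2 h at 8 °C. Phospho-library selections were run in HBS, pH 7.4. Round-three pools were analysed by NGS (Phred ≥30, ≤2 mismatches); binding was scored as the fraction of reads, not the absolute count.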
# DLG1 PDZ1 = assay: Phosphomimetic ProP-PD selection with NGS; format: binding, human; details: mean of selections 1-3, bait DLG1 PDZ1; for Mean fraction #NGS counts mimetic peptide / total count selection: phosphomimetic peptide; for Mean fraction #NGS counts wt peptide / total counts selection: wild type peptide
# Procedure, shortened: as §3
# Scribble PDZ3 = assay: Phosphomimetic ProP-PD selection with NGS; format: binding, human; details: mean over selections 1-3; bait Scribble PDZ3
# Procedure, shortened: as §3
# DLG1 PDZ2 [3] = target: T1, DLG1 PDZ2; assay: Phosphomimetic ProP-PD selection with NGS; format: binding; details: mean of selections 1-3, bait DLG1 PDZ2
# Procedure, shortened: as §3
# Scribble PDZ2 = assay: Phosphomimetic ProP-PD selection with NGS; format: binding, human; details: bait Scribble PDZ2; mean of selections 1 and 2 (selection 3 empty)
# Procedure, shortened: as §3
# Scribble PDZ1 [4] = target: T2, Scribble PDZ1; assay: Phosphomimetic ProP-PD selection with NGS; format: binding; details: bait Scribble PDZ1; mean of selections 1-3
# Procedure, shortened: as §3
# T1 sequence (Q12959 311-407): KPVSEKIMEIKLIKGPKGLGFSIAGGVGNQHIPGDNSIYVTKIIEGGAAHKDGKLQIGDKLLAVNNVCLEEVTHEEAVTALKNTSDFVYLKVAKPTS
# T2 sequence (Q14160 719-829): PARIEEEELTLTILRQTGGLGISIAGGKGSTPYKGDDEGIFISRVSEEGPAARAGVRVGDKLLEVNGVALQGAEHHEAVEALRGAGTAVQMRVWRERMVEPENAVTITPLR
Compound,Mean fraction #NGS counts mimetic peptide / total count selection (DLG1 PDZ3),Mean fraction #NGS counts mimetic peptide / total count selection (Scribble PDZ3),Mean fraction #NGS counts mimetic peptide / total count selection (DLG1 PDZ2 [3]),Mean fraction #NGS counts wt peptide / total counts selection (DLG1 PDZ3),Mean fraction #NGS counts wt peptide / total counts selection (Scribble PDZ3),also measured
CC[C@H](C)[C@H](NC(=O)[C@H](Cc1ccccc1)NC(=O)[C@H](CO)NC(=O)[C@H](CCCNC(=N)N)NC(=O)[C@H](CCCCN)NC(=S)Nc1ccc2c(c1)C(=O)OC21c2ccc(O)cc2Oc2cc(O)ccc21)C(=O)N[C@@H](CCC(=O)O)C(=O)N[C@@H](CO)C(=O)N[C@@H](CC(N)=O)C(=O)N[C@H](C(=O)O)C(C)C [TANC1] ({FITC}-KRSFIESNV-OH),,,,,,Kd (DLG1 PDZ2 [1]): 2.7 ± 0.1 µM
"CC[C@H](C)[C@H](NC(=O)[C@H](Cc1ccccc1)NC(=O)[C@H](COP(=O)(O)O)NC(=O)[C@H](CCCNC(=N)N)NC(=O)[C@H](CCCCN)NC(=S)Nc1ccc2c(c1)C(=O)OC21c2ccc(O)cc2Oc2cc(O)ccc21)C(=O)N[C@@H](CCC(=O)O)C(=O)N[C@@H](CO)C(=O)N[C@@H](CC(N)=O)C(=O)N[C@H](C(=O)O)C(C)C [pTANC1, FITC‐KRpSFIESNV] ({FITC}-KR[pS]FIESNV-OH)",,,,,,Kd (DLG1 PDZ2 [1]): 6.1 ± 0.7 µM
"ARVSKEpTPL [pMAPK12, p‐2 phosphorylated MAPK12 peptide]",,,,,,"KD values, Scribble PDZ1, ITC (Scribble PDZ1 [2]; n = 3): no binding; KD values, Scribble PDZ1, ITC (Scribble PDZ1 [2]; n = 3, listed as phosphorylated MAPK12): no interaction was observed"
EIKLKTSFF,0.01375,6.807e-5,,,,Mean fraction #NGS counts mimetic peptide / total count selection (DLG1 PDZ1): 0.06227; Mean fraction #NGS counts mimetic peptide / total count selection (DLG1 PDZ2 [3]; phosphomimetic peptide): 0.002811
GGKRKEELV,0,0,0.0001104,,,Mean fraction #NGS counts mimetic peptide / total count selection (DLG1 PDZ1): 3.0718e-6
GGKRKETLV,,,,0.06478,6.172e-5,Mean fraction #NGS counts wt peptide / total counts selection (DLG1 PDZ1): 0.3267; Mean fraction #NGS counts wt peptide / total counts selection (DLG1 PDZ2 [3]): 0.3203
HSIKQETAV,0.0006363,0.0001468,0.01768,,,Mean fraction #NGS counts mimetic peptide / total count selection (DLG1 PDZ1): 0.0009534; Mean fraction #NGS counts mimetic peptide / total count selection (Scribble PDZ2): 0.001519; Mean fraction #NGS counts mimetic peptide / total count selection (Scribble PDZ1 [4]): 6.299e-5
HSIKQSTAV,,,0,0,5.205e-5,Mean fraction #NGS counts wt peptide / total counts selection (DLG1 PDZ1): 0.0004538; Mean fraction #NGS counts wt peptide / total counts selection (Scribble PDZ2): 0.0003798; Mean fraction #NGS counts wt peptide / total counts selection (Scribble PDZ1 [4]): 4.38e-5; Mean fraction #NGS counts wt peptide / total counts selection (DLG1 PDZ2 [3]; wild type peptide): 5.408e-5
LPKIKEETV,0,0,0,,,Mean fraction #NGS counts mimetic peptide / total count selection (DLG1 PDZ1): 3.0718e-6; Mean fraction #NGS counts mimetic peptide / total count selection (Scribble PDZ1 [4]): 0
LPKIKETTV,,,,0.008422,0.004275,Mean fraction #NGS counts wt peptide / total counts selection (DLG1 PDZ1): 0.004479; Mean fraction #NGS counts wt peptide / total counts selection (Scribble PDZ1 [4]): 0.0005451; Mean fraction #NGS counts wt peptide / total counts selection (DLG1 PDZ2 [3]): 0.04339
PANRRETPV,0.0003587,,,,,Mean fraction #NGS counts mimetic peptide / total count selection (DLG1 PDZ1): 3.546e-5
PANRRTTPV,,,,0,,Mean fraction #NGS counts wt peptide / total counts selection (DLG1 PDZ1): 0
RPYRREEEI,0,0,,,,
RPYRRESEI,,,0,2.154e-5,9.302e-5,Mean fraction #NGS counts wt peptide / total counts selection (DLG1 PDZ2 [3]): 3.461e-5
RQTEYQGVL,3.59e-6,,0,,,
RQTSYQGVL,,,,0.008629,,Mean fraction #NGS counts wt peptide / total counts selection (DLG1 PDZ2 [3]): 0.001671
SRDRKEESI,5.904e-6,2.019e-6,0,,,
SRDRKETSI,,,,0.002721,0.00255,Mean fraction #NGS counts wt peptide / total counts selection (DLG1 PDZ2 [3]): 0.0004401
TIKLKTSFF,,,,3.092e-5,4.802e-5,Mean fraction #NGS counts wt peptide / total counts selection (DLG1 PDZ1): 0; Mean fraction #NGS counts wt peptide / total counts selection (DLG1 PDZ2 [3]; wild type peptide): 4.36e-5
VWLRKEERV,9.275e-5,0,3.584e-5,,,Mean fraction #NGS counts mimetic peptide / total count selection (DLG1 PDZ1): 0; Mean fraction #NGS counts mimetic peptide / total count selection (Scribble PDZ2): 0; Mean fraction #NGS counts mimetic peptide / total count selection (Scribble PDZ1 [4]): 0
VWLRKETRV,,,,0.8949,0.009414,Mean fraction #NGS counts wt peptide / total counts selection (DLG1 PDZ1): 0.4163; Mean fraction #NGS counts wt peptide / total counts selection (Scribble PDZ2): 0.008925; Mean fraction #NGS counts wt peptide / total counts selection (Scribble PDZ1 [4]): 0.0001002; Mean fraction #NGS counts wt peptide / total counts selection (DLG1 PDZ2 [3]): 0.5055
YSPSMTMSV,,,,7.133e-5,,
